In patent publication US20170251943A1, “Systems Level State Characteristics in Experimental Treatment of Disease” (priority 2014, published 2017):

How the values were obtained:
[1] = system: rats; experiment: CNS state characterization (LFP PSDs, diencephalic/telencephalic structures) in pharmacological psychosis-like states; format: in vivo, rat; settings: Hippocampus, Nucleus Accumbens, Thalamus; pink noise normalized, FIG. 6
Method: Power spectral densities (PSDs) are calculated with a multitaper method (Pesaran, 2008) (50%-overlapping 8-s windows, 7 tapers) implemented in Chronux 2.0 (Mitra and Bokil, 2007). To stabilize the variance and to emphasize narrowband oscillations over wideband signals, PSDs are normalized to the pink noise background according to Halje et al. (Halje et al., 2012), but with one important adaptation: Due to the complexity of the data it is not practical to manually pick frequency bands with pure pink noise in all structures and conditions to get unbiased estimates of the noise background. […] As a final step, an average spectrogram is calculated for each structure, based on the spectrograms for each individual local bipolar LFP time series. […]
For this purpose, a number of diencephalic and telencephalic structures were recorded in parallel including: hippocampus [corresponding to anterior hippocampus in humans], nucleus accumbens [core and shell], medial prefrontal cortex and anterior gyrus cinguli (adapted to rodent anatomy), the mediodorsal nucleus and the medial geniculate nucleus in thalamus.

[2] = system: medial forebrain bundle 6-OHDA hemilesioned rat; experiment: Levodopa-induced dyskinesia, dyskinetic symptoms in 6-OHDA hemilesioned rat; format: in vivo
Excerpt: To characterize the CNS effects of experimental treatment of symptoms in levodopa-induced dyskinesia, the most widely used model of this disease condition was employed—the medial forebrain bundle 6-OHDA hemilesioned rat. In this model, parkinsonism is induced by the injection of this neurotoxin resulting in extensive neurotoxic lesions of midbrain dopaminergic neurons projecting to the forebrain. By injecting the […] in only one of the hemispheres the other hemisphere can be used as an internal control in different recordings conditions/behavioral situations. Following a period of levodopa treatment, animals developed dyskinetic symptoms affecting the side of the body contralateral to the brain lesion (Halje et al., 2012). Thus, neuronal recordings obtained in the parkinsonian and dyskinetic condition can be compared to a healthy control condition. Rats were chronically implanted with 128 recording electrodes according to the methods described above and CNS activity patterns were recorded in a number of experiments performed in four adult female Sprague-Dawley rats.

[3] = system: medial forebrain bundle 6-OHDA hemilesioned rat; experiment: CNS state characterization (LFP PSDs / spike trains, cortico-basal ganglia-thalamic loop) in dyskinetic 6-OHDA hemilesioned rat; format: in vivo
Method: Power spectral densities (PSDs) are calculated with a multitaper method (Pesaran, 2008) (50%-overlapping 8-s windows, 7 tapers) implemented in Chronux 2.0 (Mitra and Bokil, 2007). To stabilize the variance and to emphasize narrowband oscillations over wideband signals, PSDs are normalized to the pink noise background according to Halje et al. (Halje et al., 2012), but with one important adaptation: Due to the complexity of the data it is not practical to manually pick frequency bands with pure pink noise in all structures and conditions to get unbiased estimates of the noise background. Instead the whole frequency axis is divided into 20 logarithmically spaced bands (1-1.3, 1.3-1.7, . . . , 151.3-200 Hz) and the median power of each band is used for the fitting of the pink noise power curve S(f)=A/f^B. The pink noise normalization allows us to describe deviations from the pink noise floor in terms of the unit dBpink. As a final step, an average spectrogram is calculated for each structure, based on the spectrograms for each individual local bipolar LFP time series.
Offline spike sorting can be performed with commercially available software to obtain spike trains of individual neurons, for example Offline Sorter by Plexon Inc. Standard spike train statistics like average firing rate and coefficient of variation is then calculated and used as features in the state-space analysis.
elements, where each element is a measured variable. Typically, there are a couple of thousand variables in such a state description and it is necessary to reduce the dimensionality before it is practical to make further state characterizations. […]
To characterize the CNS effects of experimental treatment of symptoms in levodopa-induced dyskinesia, the most widely used model of this disease condition was employed—the medial forebrain bundle 6-OHDA hemilesioned rat. […] Rats were chronically implanted with 128 recording electrodes according to the methods described above and CNS activity patterns were recorded in a number of experiments performed in four adult female Sprague-Dawley rats. […]

[4] = system: rats; experiment: Behavioral changes in rats treated with psychosis-inducing drugs; format: in vivo, rat; settings: 10-50 min after injection

CCN(CC)C(=O)[C@@H]1C=C2c3cccc4[nH]cc(c34)C[C@H]2N(C)C1 [LSD, lysergic acid diethylamide]
LFP power spectra of the drug-induced psychosis-like state [1]: high-frequency narrow band oscillation in n. Accumbens

CCCN(CCC)C1CCc2cccc(O)c2C1 (stereo not shown) [8-OH-DPAT]
effect on dyskinetic symptoms ([2]; 1 mg/kg and 0.4 mg/kg i.p. at the time point of peak dyskinesia, two experiments): effectively suppress dyskinetic symptoms | shift of CNS state in state space ([3]; dyskinetic rat, state spaces from spike trains and LFP PSDs, FIGS. 4 and 5): primarily shifted the dyskinetic state back towards the parkinsonian state

COc1ccccc1N1CCN(CCN(C(=O)C2CCCCC2)c2ccccn2)CC1 [WAY100635]
reversal of the anti-dyskinetic effect of the 5-HT1A agonist 8-OH-DPAT ([2]; given after 8-OH-DPAT in dyskinetic rat): fully reversed | reversal of 8-OH-DPAT effect on CNS state (LFP power spectral densities) ([3]; dyskinetic+8-OH-DPAT rat, LFP PSDs in eight structures, FIG. 4): reversed the effect of 8-OH-DPAT inducing a state that closely resembles the initial dyskinetic state | reversal of 8-OH-DPAT effect on CNS state (relative firing rates of neurons) ([3]; dyskinetic+8-OH-DPAT rat, firing rates in eight structures of lesioned hemisphere, FIG. 5): reversed the effect of 8-OH-DPAT to a state closely resembling the initial dyskinetic state

CNC1(c2ccccc2Cl)CCCCC1=O (stereo not shown) [Ketamine]
behavioral change (locomotion) [4]: increased locomotion
